The record followed here is patent EP1935986B1, “Luminogenic and fluorogenic compounds and methods to detect molecules or conditions” (priority 2005, dated 2006).

For data set [1], the system named is CYP3A subfamily, CYP3A4, CYP3A5 and CYP3A7. Kind of data set: Two-step luminescent P450 screen of luciferin derivatives, selectivity for the CYP3A subfamily. In kind it is biochemical, human. The settings on record: result in words. The method, then: (§1) P450s are Supersomes™ purchased from Discovery Labware (BD/Gentest). […] HLM is human liver microsomes.
(§2) 1X substrate concentration: 50 µM.

Another data set deals with T1, CYP1A1 (Homo sapiens, UniProt P04798).
T1 sequence (P04798 1-512): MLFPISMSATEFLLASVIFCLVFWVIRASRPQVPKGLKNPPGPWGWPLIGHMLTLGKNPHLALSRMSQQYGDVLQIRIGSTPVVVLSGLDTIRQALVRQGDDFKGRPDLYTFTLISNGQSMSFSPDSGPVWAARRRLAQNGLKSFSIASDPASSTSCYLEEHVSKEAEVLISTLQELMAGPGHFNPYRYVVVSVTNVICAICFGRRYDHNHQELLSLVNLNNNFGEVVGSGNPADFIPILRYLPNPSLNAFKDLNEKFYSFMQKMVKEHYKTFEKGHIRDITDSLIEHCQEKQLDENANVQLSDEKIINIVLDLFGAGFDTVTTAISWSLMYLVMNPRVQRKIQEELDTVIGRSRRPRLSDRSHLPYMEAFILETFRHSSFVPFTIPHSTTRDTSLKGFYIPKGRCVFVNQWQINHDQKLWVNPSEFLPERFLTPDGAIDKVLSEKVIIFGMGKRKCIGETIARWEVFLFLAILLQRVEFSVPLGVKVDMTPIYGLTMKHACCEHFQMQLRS
Kind of data set: Two-step luminescent P450 screen of luciferin derivatives. The settings on record: 50 µM substrate, 1 pmole P450, 37°C 30 minutes; result in words.

The target of a further data set is T2, CYP1A2 (Homo sapiens, UniProt P05177).
T2 construct: purchased Discovery Labware (BD/Gentest); host or cells: insect cell expression system (membrane fractions)
T2 sequence (P05177 2-516 limits assumed): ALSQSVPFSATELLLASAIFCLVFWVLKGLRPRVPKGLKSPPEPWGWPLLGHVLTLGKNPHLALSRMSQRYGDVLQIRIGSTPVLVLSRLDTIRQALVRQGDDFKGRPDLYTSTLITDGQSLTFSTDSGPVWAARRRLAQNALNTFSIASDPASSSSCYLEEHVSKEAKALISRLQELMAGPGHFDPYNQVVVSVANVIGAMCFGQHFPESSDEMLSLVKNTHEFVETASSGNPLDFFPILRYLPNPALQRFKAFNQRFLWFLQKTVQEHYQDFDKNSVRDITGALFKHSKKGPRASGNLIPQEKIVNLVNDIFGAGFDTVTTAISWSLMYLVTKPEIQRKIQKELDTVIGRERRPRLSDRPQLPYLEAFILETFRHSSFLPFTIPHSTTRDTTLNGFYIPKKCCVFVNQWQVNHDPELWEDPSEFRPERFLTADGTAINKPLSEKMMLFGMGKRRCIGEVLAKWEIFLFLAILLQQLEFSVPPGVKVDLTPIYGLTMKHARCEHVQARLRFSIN
Described as above. In kind it is biochemical. The settings on record: 50 µM substrate, 1 pmole P450; result in words. The method, then:
as §1, §2

Data set [2] has as its target T3, human recombinant monoamine oxidase B (MAO B) (Homo sapiens, UniProt P27338).
T3 construct: purchased Sigma Chemical Company M-7441; host or cells: baculovirus infected insect cells (microsomes)
T3 sequence (P27338 1-520): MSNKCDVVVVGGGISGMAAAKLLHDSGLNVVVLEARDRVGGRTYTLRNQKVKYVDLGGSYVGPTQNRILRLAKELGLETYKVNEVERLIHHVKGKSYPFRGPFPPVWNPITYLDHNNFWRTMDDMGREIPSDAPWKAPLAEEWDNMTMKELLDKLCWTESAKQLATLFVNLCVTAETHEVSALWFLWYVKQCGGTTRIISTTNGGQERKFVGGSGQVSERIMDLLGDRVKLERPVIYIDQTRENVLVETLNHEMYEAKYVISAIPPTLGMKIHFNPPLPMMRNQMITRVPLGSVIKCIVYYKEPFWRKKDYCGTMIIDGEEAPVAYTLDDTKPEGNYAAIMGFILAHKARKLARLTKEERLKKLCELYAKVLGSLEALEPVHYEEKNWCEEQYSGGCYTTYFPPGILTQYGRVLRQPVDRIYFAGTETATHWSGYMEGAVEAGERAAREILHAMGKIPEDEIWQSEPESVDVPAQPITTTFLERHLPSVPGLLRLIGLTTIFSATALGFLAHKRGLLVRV
Kind of data set: One-step fluorogenic MAO assay with MAO-F3. In kind it is biochemical. The method, then:
(§3) The fluorescent signal was then measured (excitation/emission = 355/460 nm) on a Fluoroskan Ascent plate fluorometer.
(§4) This 90 µl contained 35 µl 200 mM Tricine pH 8.3, 35 µl 200 mM Tricine pH 8.7 (or water), 10 µl 200 mM MgSO4, and 10 µl of each substrate dilution.

Data set [3] in a line: One-step fluorogenic MAO assay with MAO-F3, control wells with H2O instead of MAO (fluorescence of the derivative). In kind it is biochemical. The procedure: as §3, §4
Data set [4] concerns the target T4, human recombinant monoamine oxidase A (MAO A) (Homo sapiens, UniProt P21397).
T4 sequence (P21397 1-527): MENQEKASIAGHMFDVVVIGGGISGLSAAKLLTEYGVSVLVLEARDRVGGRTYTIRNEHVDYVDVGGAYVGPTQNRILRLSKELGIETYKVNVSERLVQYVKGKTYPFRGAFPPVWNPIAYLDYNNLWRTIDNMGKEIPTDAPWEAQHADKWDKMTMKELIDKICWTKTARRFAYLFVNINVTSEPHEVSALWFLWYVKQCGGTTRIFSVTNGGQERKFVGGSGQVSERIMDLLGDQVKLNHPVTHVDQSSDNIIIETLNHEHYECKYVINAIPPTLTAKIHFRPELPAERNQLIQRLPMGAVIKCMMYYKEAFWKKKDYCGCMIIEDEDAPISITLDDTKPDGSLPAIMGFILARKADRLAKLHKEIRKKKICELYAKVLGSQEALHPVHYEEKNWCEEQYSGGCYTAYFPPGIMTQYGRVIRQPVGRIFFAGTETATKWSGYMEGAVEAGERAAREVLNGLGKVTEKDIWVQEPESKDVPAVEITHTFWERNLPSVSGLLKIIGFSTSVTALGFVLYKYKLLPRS
Kind of data set: One-step fluorogenic MAO assay with MAO-F3. In kind it is biochemical. On the set-up: purchased Sigma Chemical Company M-7316; host or cells: baculovirus infected insect cells (microsomes). The method, then: as §3, §4

Where [5] appears, read: fit of Table 31, fluorescence 355/460 nm.

For the compound `O=C(O)[C@H]1CSC(c2ccc3cc(OCOCc4ccccc4)ccc3n2)=N1` [6'benzyloxymethoxy-quinolylluciferin, quinolinyl luciferin benzyloxymethyl ether], in data set [1], the “selectivity for three members of the CYP3A subfamily” value is given as “selective”.

With “N-isobutoxycarbonyl-aminoluciferin [N-isobutoxycarbonyl aminolucifern]”, the “P450 activity / selectivity with the derivative as substrate” value (“P450 activity / selectivity” below) on CYP1A1 was “strong selectivity”.

With `O=C(O)[C@H]1CSC(c2nc3ccc(OCc4cc(C(F)(F)F)ccc4C(F)(F)F)cc3s2)=N1` [6'(2,5-ditrifluoromethylbenzyloxy)-luciferin], the “selectivity for three members of the CYP3A subfamily” value in data set [1] is “selective”.

For the compound `COc1ccc2nc(C3=N[C@@H](C(=O)NN)CS3)sc2c1` [luciferin-6-methylether hydrazide, Hydrazide of luciferin methyl ether], the “P450 activity / selectivity” value at CYP1A2 is “good selectivity”.

Turning to Bis-luciferin-methylenediether, the “P450 activity / selectivity” value at CYP1A1 is recorded as “selective”.

As to `COc1ccc2nc(C3=N[C@@H](C(=O)O)CS3)ccc2c1` [Quinolylluciferin 6-methyl ether, 2-(6-methoxyquinolin-2-yl)-4,5-dihydrothiazole-4-carboxylate], the “P450 activity / selectivity” value on CYP1A2 is on record as “preferred substrate”.

Turning to N-benzyloxycarbonyl aminoluciferin, the “P450 activity / selectivity” value at CYP1A1 is “strong selectivity”.

As to `CNCCCOc1ccc2c(C)cc(=O)oc2c1` [MAO-F3, 7-(4-methyl-3-N-methylaminopropoxy)coumarin], the “relative fluorescent signal, MAO B” value in data set [2] ([MAO-F3] 0.21 µM) came to 202; in data set [2] ([MAO-F3] 0.84 µM), 689; in data set [2] ([MAO-F3] 3.37 µM) it was 2198; in data set [2] ([MAO-F3] 6.75 µM), 3683; in data set [2] ([MAO-F3] 13.50 µM) it was 5239; in data set [2] ([MAO-F3] 26.99 µM) it was 7468. For the same compound, the “relative fluorescent signal, MAO B” value turned out to be 9885 in data set [2] ([MAO-F3] 53.98 µM), 14149 in data set [2] ([MAO-F3] 215.94 µM), 16590 in data set [2] ([MAO-F3] 431.88 µM) and 17322 in data set [2] ([MAO-F3] 863.75 µM). The “relative fluorescent signal, net B” value in data set [2] ([MAO-F3] 0.21 µM) turned out to be 154; in data set [2] ([MAO-F3] 0.84 µM), 632; in data set [2] ([MAO-F3] 3.37 µM), 2080; in data set [2] ([MAO-F3] 6.75 µM), 3486; in data set [2] ([MAO-F3] 13.50 µM), 4891; in data set [2] ([MAO-F3] 26.99 µM), 6835. For the same compound, the “relative fluorescent signal, net B” value stood at 8675 in data set [2] ([MAO-F3] 53.98 µM), 10774 in data set [2] ([MAO-F3] 215.94 µM), 11493 in data set [2] ([MAO-F3] 431.88 µM) and 10561 in data set [2] ([MAO-F3] 863.75 µM). For the same compound, the “signal-to-background ratios at the Km values” in data set [2] (fit of Table 31) is “about 13”; in data set [4] (fit of Table 31) it was “about 15”. Moreover, the values for the Km in data set [2] (setting [5]) and in data set [4] (setting [5]) were 16 ± 1 µM and 21 ± 1 µM, respectively. The “relative fluorescent signal, no MAO” value in data set [3] ([MAO-F3] 0.21 µM) is recorded as 48; in data set [3] ([MAO-F3] 0.84 µM) it was 57; in data set [3] ([MAO-F3] 3.37 µM), 118; in data set [3] ([MAO-F3] 6.75 µM) it was 197; in data set [3] ([MAO-F3] 13.50 µM), 348; in data set [3] ([MAO-F3] 26.99 µM), 633. Also, the “relative fluorescent signal, no MAO” value in data set [3] ([MAO-F3] 53.98 µM) is on record as 1210; in data set [3] ([MAO-F3] 215.94 µM), 3375; in data set [3] ([MAO-F3] 431.88 µM), 5097; in data set [3] ([MAO-F3] 863.75 µM), 6761. For the same compound, the “relative fluorescent signal, MAO A” value in data set [4] ([MAO-F3] 0.21 µM) is given as 240; in data set [4] ([MAO-F3] 0.84 µM) it was 815; in data set [4] ([MAO-F3] 3.37 µM), 2604; in data set [4] ([MAO-F3] 6.75 µM) it was 4129; in data set [4] ([MAO-F3] 13.50 µM), 6078; in data set [4] ([MAO-F3] 26.99 µM), 8461. Besides, the “relative fluorescent signal, MAO A” value in data set [4] ([MAO-F3] 53.98 µM) is listed as 11555; in data set [4] ([MAO-F3] 215.94 µM), 16721; in data set [4] ([MAO-F3] 431.88 µM), 19530; in data set [4] ([MAO-F3] 863.75 µM), 21154. Moreover, the “relative fluorescent signal, net A” value in data set [4] ([MAO-F3] 0.21 µM) is 192; in data set [4] ([MAO-F3] 0.84 µM), 758; in data set [4] ([MAO-F3] 3.37 µM), 2486; in data set [4] ([MAO-F3] 6.75 µM) it was 3932; in data set [4] ([MAO-F3] 13.50 µM) it was 5730; in data set [4] ([MAO-F3] 26.99 µM), 7828. For the same compound, the “relative fluorescent signal, net A” value in data set [4] ([MAO-F3] 53.98 µM) was 10345; in data set [4] ([MAO-F3] 215.94 µM), 13346; in data set [4] ([MAO-F3] 431.88 µM) it was 14433; in data set [4] ([MAO-F3] 863.75 µM) it was 14393.
